# Measurements published in patent publication US4229204A, “Trifluoromethylphenyl isoxazolyl benzoates” (Monsanto Company, priority 1978, dated 1980).
# Assays:
# Type in all cases: in vivo
# Canada Thistle [1] = experiment: Pre-emergent herbicidal test; settings: 4 WAT, 11.2 kg/h; further: ranges in brackets are in %
# Experimental: (§1) The pre-emergent test was conducted as follows:
# (§2) A good grade of top soil was placed in aluminum pans and compacted to a depth of three-eighths to one-half inch from the top of the pan. On the top of the soil was placed a predetermined number of seeds or vegetative propagules of various plant species which were pressed into the soil surface. The soil required to level fill the pans after seeding or adding vegetative propagules was weighed into a pan. A known amount of the active ingredient applied in a solvent or as a wettable powder and the soil were thoroughly mixed, and used as a cover layer for prepared pans.
# (§3) The herbicidal rating was obtained by means of a fixed scale based on the percent injury of each plant species. The ratings are defined as follows: […]
# (§4) The compounds were also tested by utilizing the above procedure on the following plant species: […]
# Quackgrass [2] = experiment: Pre-emergent herbicidal test; settings: 4 WAT, 11.2 kg/h; further: ranges in brackets are in %
# Experimental: as §1, §2, §3, §4
# Velvetleaf [3] = experiment: Pre-emergent herbicidal test; settings: 4 WAT; further: ranges in brackets are in %
# Experimental: as §1, §2, §3, §4
# Smartweed [4] = experiment: Pre-emergent herbicidal test; settings: 4 WAT; further: ranges in brackets are in %
# Experimental: as §1, §2, §3, §4
# Johnsongrass [5] = experiment: Pre-emergent herbicidal test; settings: 4 WAT, 11.2 kg/h; further: ranges in brackets are in %
# Experimental: as §1, §2, §3, §4
# Cocklebur [6] = experiment: Pre-emergent herbicidal test; settings: 4 WAT; further: ranges in brackets are in %
# Experimental: as §1, §2, §3, §4
# Downy Brome [7] = experiment: Pre-emergent herbicidal test; settings: 4 WAT; further: ranges in brackets are in %
# Experimental: as §1, §2, §3, §4
# Lambsquarters [8] = experiment: Pre-emergent herbicidal test; settings: 4 WAT; further: ranges in brackets are in %
# Experimental: as §1, §2, §3, §4
# Barnyardgrass [9] = experiment: Pre-emergent herbicidal test; settings: 4 WAT; further: ranges in brackets are in %
# Experimental: as §1, §2, §3, §4
# Morningglory [10] = experiment: Pre-emergent herbicidal test; settings: 4 WAT; further: ranges in brackets are in %
# Experimental: as §1, §2, §3, §4
# Yellow Nutsedge [11] = experiment: Pre-emergent herbicidal test; settings: 4 WAT, 11.2 kg/h; further: ranges in brackets are in %
# Experimental: as §1, §2, §3, §4
# Sorghum [12] = experiment: Pre-emergent herbicidal test; settings: 4 WAT; further: ranges in brackets are in %
# Experimental: as §1, §2, §3
# Crabgrass [13] = experiment: Pre-emergent herbicidal test; settings: 4 WAT; further: ranges in brackets are in %
# Experimental: as §1, §2, §3
# Soybean [14] = experiment: Pre-emergent herbicidal test; settings: 4 WAT; further: ranges in brackets are in %
# Experimental: as §1, §2, §3
# Wheat [15] = experiment: Pre-emergent herbicidal test; settings: 4 WAT; further: ranges in brackets are in %
# Experimental: as §1, §2, §3
# Sugarbeet [16] = experiment: Pre-emergent herbicidal test; settings: 4 WAT; further: ranges in brackets are in %
# Experimental: as §1, §2, §3
# Hemp Sesbania [17] = experiment: Pre-emergent herbicidal test; settings: 4 WAT; further: ranges in brackets are in %
# Experimental: as §1, §2, §3
# Wild Buckwheat [18] = experiment: Pre-emergent herbicidal test; settings: 4 WAT; further: ranges in brackets are in %
# Experimental: as §1, §2, §3
# Panicum Spp. [19] = experiment: Pre-emergent herbicidal test; settings: 4 WAT; further: ranges in brackets are in %
# Experimental: as §1, §2, §3
# Rice [20] = experiment: Pre-emergent herbicidal test; settings: 4 WAT; further: ranges in brackets are in %
# Experimental: as §1, §2, §3
# corn = experiment: Growth regulation of corn (dipping); settings: 1330 ppm
# Sorghum [21] = experiment: Post-emergent herbicidal test; settings: 4 WAT; further: ranges in brackets are in %
# Experimental: (§5) The post-emergent tests were conducted as follows:
# (§6) The active ingredients are applied in spray form to two or three week old specimens of various plant species. The spray, a solution or wettable powder suspension containing the appropriate rate of active ingredient to give the desired test rate and a surfactant, is applied to the plants.
# Crabgrass [22] = experiment: Post-emergent herbicidal test; settings: 4 WAT; further: ranges in brackets are in %
# Experimental: as §5, §6
# Soybean [23] = experiment: Post-emergent herbicidal test; settings: 4 WAT; further: ranges in brackets are in %
# Experimental: as §5, §6
# Wheat [24] = experiment: Post-emergent herbicidal test; settings: 4 WAT; further: ranges in brackets are in %
# Experimental: as §5, §6
# Sugarbeet [25] = experiment: Post-emergent herbicidal test; settings: 4 WAT; further: ranges in brackets are in %
# Experimental: as §5, §6
# Hemp Sesbania [26] = experiment: Post-emergent herbicidal test; settings: 4 WAT; further: ranges in brackets are in %
# Experimental: as §5, §6
# Wild Buckwheat [27] = experiment: Post-emergent herbicidal test; settings: 4 WAT; further: ranges in brackets are in %
# Experimental: as §5, §6
# Panicum Spp. [28] = experiment: Post-emergent herbicidal test; settings: 4 WAT; further: ranges in brackets are in %
# Experimental: as §5, §6
# Rice [29] = experiment: Post-emergent herbicidal test; settings: 4 WAT; further: ranges in brackets are in %
# Experimental: as §5, §6
# Canada Thistle [30] = experiment: Post-emergent herbicidal test; settings: 4 WAT, 11.2 kg/h; further: ranges in brackets are in %
# Experimental: as §5, §6, §4
# Quackgrass [31] = experiment: Post-emergent herbicidal test; settings: 4 WAT, 11.2 kg/h; further: ranges in brackets are in %
# Experimental: as §5, §6, §4
# Velvetleaf [32] = experiment: Post-emergent herbicidal test; settings: 4 WAT; further: ranges in brackets are in %
# Experimental: as §5, §6, §4
# Smartweed [33] = experiment: Post-emergent herbicidal test; settings: 4 WAT; further: ranges in brackets are in %
# Experimental: as §5, §6, §4
# Johnsongrass [34] = experiment: Post-emergent herbicidal test; settings: 4 WAT, 11.2 kg/h; further: ranges in brackets are in %
# Experimental: as §5, §6, §4
# Cocklebur [35] = experiment: Post-emergent herbicidal test; settings: 4 WAT; further: ranges in brackets are in %
# Experimental: as §5, §6, §4
# Downy Brome [36] = experiment: Post-emergent herbicidal test; settings: 4 WAT; further: ranges in brackets are in %
# Experimental: as §5, §6, §4
# Lambsquarters [37] = experiment: Post-emergent herbicidal test; settings: 4 WAT; further: ranges in brackets are in %
# Experimental: as §5, §6, §4
# Barnyardgrass [38] = experiment: Post-emergent herbicidal test; settings: 4 WAT; further: ranges in brackets are in %
# Experimental: as §5, §6, §4
# Morningglory [39] = experiment: Post-emergent herbicidal test; settings: 4 WAT; further: ranges in brackets are in %
# Experimental: as §5, §6, §4
# Yellow Nutsedge [40] = experiment: Post-emergent herbicidal test; settings: 4 WAT, 11.2 kg/h; further: ranges in brackets are in %
# Experimental: as §5, §6, §4
substance,measurement,setting,value
Ethyl 2-[3-[3-(Trifluoromethyl)Phenyl]-5-Isoxazolyl]Benzoate [Example 4],herbicidal rating,Canada Thistle [1],2 (50-74)
same,herbicidal rating,Quackgrass [2],2 (50-74)
same,herbicidal rating,Velvetleaf [3]; 1.12 kg/h,0 (0-24)
same,herbicidal rating,Velvetleaf [3]; 5.60 kg/h,1 (25-49)
same,herbicidal rating,Velvetleaf [3]; 11.2 kg/h,2 (50-74)
same,herbicidal rating,Smartweed [4]; 1.12 kg/h,3 (75-100)
same,herbicidal rating,Smartweed [4]; 5.60 kg/h,3 (75-100)
same,herbicidal rating,Smartweed [4]; 11.2 kg/h,2 (50-74)
same,herbicidal rating,Johnsongrass [5],0 (0-24)
same,herbicidal rating,Cocklebur [6]; 1.12 kg/h,0 (0-24)
same,herbicidal rating,Cocklebur [6]; 5.60 kg/h,1 (25-49)
same,herbicidal rating,Cocklebur [6]; 11.2 kg/h,1 (25-49)
same,herbicidal rating,Downy Brome [7]; 1.12 kg/h,1 (25-49)
same,herbicidal rating,Downy Brome [7]; 5.60 kg/h,2 (50-74)
same,herbicidal rating,Downy Brome [7]; 11.2 kg/h,2 (50-74)
same,herbicidal rating,Lambsquarters [8]; 1.12 kg/h,3 (75-100)
same,herbicidal rating,Lambsquarters [8]; 5.60 kg/h,2 (50-74)
same,herbicidal rating,Lambsquarters [8]; 11.2 kg/h,2 (50-74)
same,herbicidal rating,Barnyardgrass [9]; 1.12 kg/h,3 (75-100)
same,herbicidal rating,Barnyardgrass [9]; 5.60 kg/h,3 (75-100)
same,herbicidal rating,Barnyardgrass [9]; 11.2 kg/h,3 (75-100)
same,herbicidal rating,Morningglory [10]; 1.12 kg/h,2 (50-74)
same,herbicidal rating,Morningglory [10]; 5.60 kg/h,3 (75-100)
same,herbicidal rating,Morningglory [10]; 11.2 kg/h,2 (50-74)
same,herbicidal rating,Yellow Nutsedge [11],0 (0-24)
same,herbicidal rating,Sorghum [12]; 1.12 kg/h,2 (50-74)
same,herbicidal rating,Sorghum [12]; 5.60 kg/h,3 (75-100)
same,herbicidal rating,Crabgrass [13]; 1.12 kg/h,1 (25-49)
same,herbicidal rating,Crabgrass [13]; 5.60 kg/h,3 (75-100)
same,herbicidal rating,Soybean [14]; 1.12 kg/h,1 (25-49)
same,herbicidal rating,Soybean [14]; 5.60 kg/h,3 (75-100)
same,herbicidal rating,Wheat [15]; 1.12 kg/h,0 (0-24)
same,herbicidal rating,Wheat [15]; 5.60 kg/h,1 (25-49)
same,herbicidal rating,Sugarbeet [16]; 1.12 kg/h,1 (25-49)
same,herbicidal rating,Sugarbeet [16]; 5.60 kg/h,2 (50-74)
same,herbicidal rating,Hemp Sesbania [17]; 1.12 kg/h,1 (25-49)
same,herbicidal rating,Hemp Sesbania [17]; 5.60 kg/h,2 (50-74)
same,herbicidal rating,Wild Buckwheat [18]; 1.12 kg/h,2 (50-74)
same,herbicidal rating,Wild Buckwheat [18]; 5.60 kg/h,2 (50-74)
same,herbicidal rating,Panicum Spp. [19]; 1.12 kg/h,2 (50-74)
same,herbicidal rating,Panicum Spp. [19]; 5.60 kg/h,3 (75-100)
same,herbicidal rating,Rice [20]; 1.12 kg/h,3 (75-100)
same,herbicidal rating,Rice [20]; 5.60 kg/h,3 (75-100)
same,Observations,corn,"reduction in stature and ""buggy whipping"" of the leaves"
same,herbicidal rating,Sorghum [21]; 1.12 kg/h,1 (25-49)
same,herbicidal rating,Sorghum [21]; 5.60 kg/h,2 (50-74)
same,herbicidal rating,Crabgrass [22]; 1.12 kg/h,1 (25-49)
same,herbicidal rating,Crabgrass [22]; 5.60 kg/h,2 (50-74)
same,herbicidal rating,Soybean [23]; 1.12 kg/h,2 (50-74)
same,herbicidal rating,Soybean [23]; 5.60 kg/h,2 (50-74)
same,herbicidal rating,Wheat [24]; 1.12 kg/h,0 (0-24)
same,herbicidal rating,Wheat [24]; 5.60 kg/h,1 (25-49)
same,herbicidal rating,Sugarbeet [25]; 1.12 kg/h,1 (25-49)
same,herbicidal rating,Sugarbeet [25]; 5.60 kg/h,2 (50-74)
same,herbicidal rating,Hemp Sesbania [26]; 1.12 kg/h,2 (50-74)
same,herbicidal rating,Hemp Sesbania [26]; 5.60 kg/h,2 (50-74)
same,herbicidal rating,Wild Buckwheat [27]; 1.12 kg/h,2 (50-74)
same,herbicidal rating,Wild Buckwheat [27]; 5.60 kg/h,2 (50-74)
same,herbicidal rating,Panicum Spp. [28]; 1.12 kg/h,0 (0-24)
same,herbicidal rating,Panicum Spp. [28]; 5.60 kg/h,1 (25-49)
same,herbicidal rating,Rice [29]; 1.12 kg/h,1 (25-49)
same,herbicidal rating,Rice [29]; 5.60 kg/h,1 (25-49)
same,herbicidal rating,Canada Thistle [30],2 (50-74)
same,herbicidal rating,Quackgrass [31],1 (25-49)
same,herbicidal rating,Velvetleaf [32]; 1.12 kg/h,2 (50-74)
same,herbicidal rating,Velvetleaf [32]; 5.60 kg/h,1 (25-49)
same,herbicidal rating,Velvetleaf [32]; 11.2 kg/h,2 (50-74)
same,herbicidal rating,Smartweed [33]; 1.12 kg/h,2 (50-74)
same,herbicidal rating,Smartweed [33]; 5.60 kg/h,4 (100)
same,herbicidal rating,Smartweed [33]; 11.2 kg/h,2 (50-74)
same,herbicidal rating,Johnsongrass [34],1 (25-49)
same,herbicidal rating,Cocklebur [35]; 1.12 kg/h,2 (50-74)
same,herbicidal rating,Cocklebur [35]; 5.60 kg/h,2 (50-74)
same,herbicidal rating,Cocklebur [35]; 11.2 kg/h,1 (25-49)
same,herbicidal rating,Downy Brome [36]; 1.12 kg/h,0 (0-24)
same,herbicidal rating,Downy Brome [36]; 5.60 kg/h,0 (0-24)
same,herbicidal rating,Downy Brome [36]; 11.2 kg/h,0 (0-24)
same,herbicidal rating,Lambsquarters [37]; 1.12 kg/h,1 (25-49)
same,herbicidal rating,Lambsquarters [37]; 5.60 kg/h,2 (50-74)
same,herbicidal rating,Lambsquarters [37]; 11.2 kg/h,3 (75-99)
same,herbicidal rating,Barnyardgrass [38]; 1.12 kg/h,2 (50-74)
same,herbicidal rating,Barnyardgrass [38]; 5.60 kg/h,3 (75-99)
same,herbicidal rating,Barnyardgrass [38]; 11.2 kg/h,3 (75-99)
same,herbicidal rating,Morningglory [39]; 1.12 kg/h,2 (50-74)
same,herbicidal rating,Morningglory [39]; 5.60 kg/h,2 (50-74)
same,herbicidal rating,Morningglory [39]; 11.2 kg/h,2 (50-74)
same,herbicidal rating,Yellow Nutsedge [40],1 (25-49)
